Reference: ChEMBL document CHEMBL5252654 (ACS Med Chem Lett, 2023)
pEC50, pIC50, pKd: −log10 of the molar value.

Tests used:
HeLa [1] = assay: Cytotoxicity against human HeLa cells assessed as reduction in cell viability after 72 hrs by MTT assay; assay type: functional, cell-based
Phosphodiesterase 3 = Phosphodiesterase 3 (Homo sapiens, UniProt Q14432+Q13370); assay: Inhibition of human recombinant PDE3 expressed in Escherichia coli
[2] = Antiplatelet activity against ADP-induced Wistar rat platelet aggregation assessed as inhibition of platelet aggregation; assay type: functional, cell-based
[3] = Antiproliferative activity against human QGY-7701 cells assessed as reduction in cell viability measured after 72 hrs by MTT assay; assay type: functional, cell-based; conditions: QGY7701, 72 h
[4] = molecular target: T1, cGMP-inhibited 3',5'-cyclic phosphodiesterase 3A (Homo sapiens, UniProt Q14432); assay: Inhibition of PDE3A (unknown origin)
T1 sequence (Q14432 whole entry): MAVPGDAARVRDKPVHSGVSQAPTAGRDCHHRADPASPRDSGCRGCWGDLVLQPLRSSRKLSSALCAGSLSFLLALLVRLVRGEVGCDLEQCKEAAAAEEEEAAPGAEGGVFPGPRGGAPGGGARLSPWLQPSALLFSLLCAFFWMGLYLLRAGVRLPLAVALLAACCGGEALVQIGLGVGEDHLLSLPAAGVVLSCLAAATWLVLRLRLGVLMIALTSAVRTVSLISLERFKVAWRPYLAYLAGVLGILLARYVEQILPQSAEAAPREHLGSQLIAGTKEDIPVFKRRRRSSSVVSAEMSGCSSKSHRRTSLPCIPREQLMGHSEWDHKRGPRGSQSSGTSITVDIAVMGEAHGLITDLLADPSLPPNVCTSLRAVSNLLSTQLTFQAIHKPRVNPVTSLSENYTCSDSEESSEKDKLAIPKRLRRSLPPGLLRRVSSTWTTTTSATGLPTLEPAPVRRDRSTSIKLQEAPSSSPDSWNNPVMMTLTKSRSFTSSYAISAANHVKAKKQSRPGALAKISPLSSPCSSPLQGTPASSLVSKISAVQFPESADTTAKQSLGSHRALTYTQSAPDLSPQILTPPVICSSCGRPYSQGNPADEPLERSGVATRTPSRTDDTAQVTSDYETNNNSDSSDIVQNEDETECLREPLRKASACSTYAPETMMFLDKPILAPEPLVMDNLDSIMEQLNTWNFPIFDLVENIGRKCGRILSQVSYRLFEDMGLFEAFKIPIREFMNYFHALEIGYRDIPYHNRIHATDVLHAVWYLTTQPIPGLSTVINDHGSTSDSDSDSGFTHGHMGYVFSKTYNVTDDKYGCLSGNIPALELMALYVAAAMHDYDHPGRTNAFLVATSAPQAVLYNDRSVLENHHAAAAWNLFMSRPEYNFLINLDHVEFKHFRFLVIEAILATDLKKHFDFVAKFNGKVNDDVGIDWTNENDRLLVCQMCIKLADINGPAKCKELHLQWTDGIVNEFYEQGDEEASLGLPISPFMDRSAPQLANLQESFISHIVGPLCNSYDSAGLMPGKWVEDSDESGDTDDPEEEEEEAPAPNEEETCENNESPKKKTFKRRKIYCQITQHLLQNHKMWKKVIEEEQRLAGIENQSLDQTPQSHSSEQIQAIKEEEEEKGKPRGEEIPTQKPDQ

[5] = molecular target: T2, cGMP-inhibited 3',5'-cyclic phosphodiesterase 3B (Homo sapiens, UniProt Q13370); assay: Inhibition of PDE3B (unknown origin)
T2 sequence (Q13370 whole entry): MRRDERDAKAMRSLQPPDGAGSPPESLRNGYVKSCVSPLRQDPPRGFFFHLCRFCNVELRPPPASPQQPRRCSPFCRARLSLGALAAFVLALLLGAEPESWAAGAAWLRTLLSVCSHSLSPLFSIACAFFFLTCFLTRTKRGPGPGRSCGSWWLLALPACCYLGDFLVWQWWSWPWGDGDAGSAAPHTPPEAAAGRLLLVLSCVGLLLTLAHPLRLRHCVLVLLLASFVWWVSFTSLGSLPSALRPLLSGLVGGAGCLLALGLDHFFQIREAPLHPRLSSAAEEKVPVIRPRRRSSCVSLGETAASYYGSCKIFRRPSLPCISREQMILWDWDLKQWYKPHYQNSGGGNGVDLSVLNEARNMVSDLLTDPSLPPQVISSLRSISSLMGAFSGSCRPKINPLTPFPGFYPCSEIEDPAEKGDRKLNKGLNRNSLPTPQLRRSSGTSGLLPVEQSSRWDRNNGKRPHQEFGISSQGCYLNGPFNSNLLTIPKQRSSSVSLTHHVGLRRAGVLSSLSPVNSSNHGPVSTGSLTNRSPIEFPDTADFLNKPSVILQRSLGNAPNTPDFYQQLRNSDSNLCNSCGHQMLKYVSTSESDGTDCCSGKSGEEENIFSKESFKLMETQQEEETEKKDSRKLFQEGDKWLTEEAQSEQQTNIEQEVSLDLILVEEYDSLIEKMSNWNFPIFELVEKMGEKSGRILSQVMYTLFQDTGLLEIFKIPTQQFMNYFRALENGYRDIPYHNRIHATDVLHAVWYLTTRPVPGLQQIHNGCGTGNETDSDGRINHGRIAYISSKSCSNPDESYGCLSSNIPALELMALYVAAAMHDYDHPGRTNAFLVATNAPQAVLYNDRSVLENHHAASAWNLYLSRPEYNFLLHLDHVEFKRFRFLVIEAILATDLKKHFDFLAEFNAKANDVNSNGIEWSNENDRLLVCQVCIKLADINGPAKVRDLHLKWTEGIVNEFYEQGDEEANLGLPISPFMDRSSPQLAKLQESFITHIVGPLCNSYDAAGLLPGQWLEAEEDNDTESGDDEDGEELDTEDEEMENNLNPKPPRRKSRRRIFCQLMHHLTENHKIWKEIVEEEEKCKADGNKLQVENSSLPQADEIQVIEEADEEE

[6] = molecular target: T1, cGMP-inhibited 3',5'-cyclic phosphodiesterase 3A; assay: Binding affinity to PDE3A (unknown origin) assessed as dissociation constant
Ribonuclease SLFN12 [7] = molecular target: T3, Ribonuclease SLFN12 (Homo sapiens, UniProt Q8IYM2); assay: Binding affinity to SLFN12 (unknown origin) assessed as dissociation constant
T3 sequence (Q8IYM2 whole entry): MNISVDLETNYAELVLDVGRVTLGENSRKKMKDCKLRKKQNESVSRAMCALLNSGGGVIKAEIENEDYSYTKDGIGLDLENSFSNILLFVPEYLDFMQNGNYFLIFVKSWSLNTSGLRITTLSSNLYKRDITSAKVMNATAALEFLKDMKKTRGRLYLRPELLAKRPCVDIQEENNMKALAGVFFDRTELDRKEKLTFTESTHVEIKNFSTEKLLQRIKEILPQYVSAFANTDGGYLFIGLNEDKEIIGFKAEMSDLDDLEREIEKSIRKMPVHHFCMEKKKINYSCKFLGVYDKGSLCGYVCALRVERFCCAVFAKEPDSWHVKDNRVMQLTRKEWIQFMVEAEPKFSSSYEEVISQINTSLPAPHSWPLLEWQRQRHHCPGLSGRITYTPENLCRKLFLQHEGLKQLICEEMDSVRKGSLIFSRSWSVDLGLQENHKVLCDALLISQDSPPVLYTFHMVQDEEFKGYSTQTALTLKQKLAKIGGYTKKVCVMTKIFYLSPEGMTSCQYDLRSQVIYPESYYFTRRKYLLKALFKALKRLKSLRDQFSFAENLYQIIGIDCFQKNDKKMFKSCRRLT

[8] = molecular target: T2, cGMP-inhibited 3',5'-cyclic phosphodiesterase 3B; assay: Binding affinity to human recombinant PDE3B expressed as Escherichia coli assessed as dissociation constant
Ribonuclease SLFN12 [9] = molecular target: T3, Ribonuclease SLFN12; assay: Binding affinity to human recombinant SLFN12 expressed as Escherichia coli assessed as dissociation constant
[10] = Antiplatelet aggregation activity in rabbit platelet-rich plasma assessed as reduction in ADP-induced aggregation incubated for 5 mins by aggregometry; assay type: functional, cell-based; conditions: Oryctolagus cuniculus
[11] = Half life in Wistar rat at 0.29 to 4.86 mg/kg, po; assay type: ADME, organism-based; conditions: in vivo, dose 0.29-4.86 mg/kg
[12] = Half life in Beagle dog at 0.29 to 4.86 mg/kg, po; assay type: ADME, organism-based, Canis lupus familiaris; conditions: in vivo, dose 0.29-4.86 mg/kg
[13] = Inhibition of Rhesus monkey blood platelet aggregation at 4 mg/kg, po; assay type: functional; conditions: Macaca mulatta
[14] = Inhibition of rhesus monkey blood platelet aggregation at 1 mg/kg, po; assay type: functional; conditions: Macaca mulatta
Oryctolagus cuniculus = assay: Antithrombotic activity in New Zealand White biolaser-induced oral dosed rabbit model assessed as reduction in thrombus mass; assay type: functional
[15] = Antiplatelet aggregation activity in rabbit platelet rich plasma assessed as reduction in ADP-induced platelet aggregation; assay type: functional, cell-based; conditions: Oryctolagus cuniculus
[16] = Antiplatelet activity in rabbit platelet rich plasma assessed as inhibition of collagen-induced platelet aggregation; assay type: functional, cell-based; conditions: Oryctolagus cuniculus
[17] = Antiplatelet activity in rabbit platelet rich plasma assessed as inhibition of thrombin-induced platelet aggregation; assay type: functional, cell-based; conditions: Oryctolagus cuniculus
[18] = Antiplatelet activity in rabbit platelet rich plasma assessed as inhibition of arachidonic acid-induced platelet aggregation; assay type: functional, cell-based; conditions: Oryctolagus cuniculus
[19] = Antiplatelet activity in rabbit platelet rich plasma assessed as inhibition of antigen-antibody-induced platelet aggregation; assay type: functional, cell-based; conditions: Oryctolagus cuniculus
[20] = Antiplatelet aggregation activity in Sprague-Dawley rat platelet rich plasma assessed as reduction in ADP-induced platelet aggregation; assay type: functional, cell-based
[21] = Antiplatelet aggregation activity in Sprague-Dawley rat platelet rich plasma assessed as reduction in collagen-induced platelet aggregation; assay type: functional, cell-based
[22] = Antiplatelet aggregation activity in rhesus monkey platelet rich plasma assessed as reduction in ADP-induced platelet aggregation; assay type: functional, cell-based; conditions: Macaca mulatta
[23] = Antiplatelet aggregation activity in rhesus monkey platelet rich plasma assessed as reduction in collagen-induced platelet aggregation; assay type: functional, cell-based; conditions: Macaca mulatta
[24] = Antiplatelet aggregation activity in dog rich plasma assessed as reduction in ADP-induced platelet aggregation; assay type: functional, cell-based; conditions: Canis lupus familiaris
[25] = Antiplatelet aggregation activity in human rich plasma assessed as reduction in ADP-induced platelet aggregation; assay type: functional, cell-based
[26] = Antiplatelet aggregation activity in human rich plasma assessed as reduction in collagen-induced platelet aggregation; assay type: functional, cell-based
HeLa [27] = assay: Antiproliferative activity against human HeLa cells assessed as reduction in cell viability measured after 72 hrs by MTT assay; assay type: functional, cell-based
HeLa [28] = assay: Antiproliferative activity against human HeLa cells assessed as reduction in cell growth; assay type: functional, cell-based

CCc1ccc(-c2ccc3c(c2Cl)CN2CC(=O)NC2=N3)cc1
pEC50 (HeLa [1]): 8.74

O=C1CN2Cc3c(ccc(F)c3Cl)N=C2N1
pEC50 (HeLa [1]): 7.47

C[C@@H]1OC(=O)NN=C1c1ccc(-c2ccc(F)cc2)c(C(F)(F)F)c1
pEC50 (HeLa [1]): 8.89

CC1CC(=O)NN=C1c1ccc2c(c1)CCC(=O)N2C (stereo unspecified)
IC50 (Phosphodiesterase 3): 90 nM

O=C1CN2Cc3c(ccc(-c4ccc(Cl)cc4)c3Cl)N=C2N1
pEC50 (HeLa [1]): 8.74

Cc1ccc(-c2ccc3c(c2Cl)CN2CC(=O)NC2=N3)cc1
pEC50 (HeLa [1]): 9.52

O=C1NC2=Nc3ccc(Cl)c(Cl)c3CN2C1O (stereo unspecified)
IC50 (Phosphodiesterase 3): 32 nM
pEC50 [2]: 7.32

O=C1CN2Cc3c(ccc(-c4ccncc4)c3Cl)N=C2N1
pEC50 (HeLa [1]): 8.21

C[C@]12CC[C@@H]3c4ccc(O)cc4CC[C@H]3[C@@H]1CC[C@@H]2O [ESTRADIOL]
pEC50 (HeLa [1]): 9.15

Cc1ccccc1-c1ccc2c(c1Cl)CN1CC(=O)NC1=N2
pEC50 (HeLa [1]): 8.96

O=C1CN2Cc3c(ccc(-c4ccoc4)c3Cl)N=C2N1
pEC50 (HeLa [1]): 9.22

COc1cc(-c2ccc(=O)[nH]n2)ccc1OC(F)F [ZARDAVERINE]
pEC50 [3]: 7.25

N#Cc1ccc(-c2ccc3c(c2Cl)CN2CC(=O)NC2=N3)cc1
pEC50 (HeLa [1]): 8.62

O=C1CN2Cc3c(ccc(-c4ccsc4)c3Cl)N=C2N1
pEC50 (HeLa [1]): 8.75

O=C1CCc2cc(OCCCCc3nnnn3C3CCCCC3)ccc2N1 [CILOSTAZOL]
IC50 (Phosphodiesterase 3): 200 nM

O=C1CN2Cc3c(Cl)cccc3N=C2N1
pEC50 (HeLa [1]): 7.37

O=C1CN2Cc3c(ccc(-c4ccccc4)c3Cl)N=C2N1
pEC50 (HeLa [1]): 9.25

O=C1CN2Cc3c(ccc(Br)c3Cl)N=C2N1
pEC50 (HeLa [1]): 8.60

C[C@@H]1C(=O)NC2=Nc3cccc(Cl)c3CN21 [QUAZINONE]
IC50 (Phosphodiesterase 3): 580 nM

O=C1CN2Cc3c(cc(Cl)c(-c4ccccc4)c3Cl)N=C2N1
pEC50 (HeLa [1]): 8.94

CCN(CC)c1ccc(C2=NNC(=O)C[C@H]2C)cc1[N+](=O)[O-]
pIC50 [4]: 7.60
pIC50 [5]: 7.00
pKd [6]: 7.40
pKd (Ribonuclease SLFN12 [7]): 6.06
pKd [8]: 6.49
pKd (Ribonuclease SLFN12 [9]): 7.19

O=C1CN2Cc3c(ccc(-c4ccc(O)cc4)c3Cl)N=C2N1
pEC50 (HeLa [1]): 7.91

O=C1CN2Cc3c(ccc(Cl)c3Cl)N=C2N1 [ANAGRELIDE]
EC50 [10]: < 1 µg/mL
half-life [11]: 420 min
half-life [12]: 1140 min
inhibition in vivo at 4 mg/kg [13]: 47%
inhibition in vivo at 1 mg/kg [14]: 24%
ED50 (Oryctolagus cuniculus): 2.5 mg/kg
pEC50 [15]: 5.92
pEC50 [16]: 6.51
pEC50 [17]: 6.15
pEC50 [18]: 6.41
pEC50 [19]: 6.13
pEC50 [20]: 6.57
pEC50 [21]: 6.82
pEC50 [22]: 6.30
pEC50 [23]: 7.10
pEC50 [24]: 6.51
pEC50 [25]: 6.40
pEC50 [26]: 7.10
pEC50 [2]: 7.57
pEC50 (HeLa [27]): 8.29
pEC50 (HeLa [28]): 8.40
pEC50 (HeLa [1]): 8.18

Cc1cccc(-c2ccc3c(c2Cl)CN2CC(=O)NC2=N3)c1
pEC50 (HeLa [1]): 8.86
